Columns and labels:
NCI-H524 = experiment: cells; format: functional, cell-based; conditions: Homo sapiens;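 note: growth inhibition of human NCI-H524 cells, read out through a cell viability assay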
Description: SANGER: Inhibition of human NCI-H524 cell growth in a cell viability assay.

NCI-H1417 = experiment: cells; format: functional, cell-based; conditions: Homo sapiens;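 note: human NCI-H1417 cells, growth inhibition determined with a cell viability readout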
Description: SANGER: Inhibition of human NCI-H1417 cell growth in a cell viability assay.

H4 = experiment: cells; format: functional, cell-based; conditions: Homo sapiens
Description: SANGER: Inhibition of human H4 cell growth in a cell viability assay.

MDA-MB-175-VII = experiment: cells; format: functional, cell-based; conditions: Homo sapiens
MDA-MB-453 = experiment: cells; format: functional, cell-based; conditions: Homo sapiens
Description: SANGER: Inhibition of human MDA-MB-453 cell growth in a cell viability assay.

BHT-101 = experiment: cells; format: functional, cell-based; conditions: Homo sapiens
Description: SANGER: Inhibition of human BHT-101 cell growth in a cell viability assay.

SCC-3 = experiment: cells; format: functional, cell-based; conditions: Homo sapiens;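 note: cell viability assay measuring inhibition of SCC-3 cell growth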
Description: SANGER: Inhibition of human SCC-3 cell growth in a cell viability assay.

SK-MEL3 = experiment: cells; format: functional, cell-based, SK-MEL-3; conditions: Homo sapiens;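 note: growth inhibition of human SK-MEL-3 cells, read out with a cell viability assay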
Description: SANGER: Inhibition of human SK-MEL-3 cell growth in a cell viability assay.

OAW-42 = experiment: cells; format: functional, cell-based; conditions: Homo sapiens;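 note: growth inhibition of OAW-42 cells, read out with a cell viability assay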
Description: SANGER: Inhibition of human OAW-42 cell growth in a cell viability assay.

BL-70 = experiment: SANGER: Inhibition of human BL-70 cell growth in a cell viability assay.; format: functional, cell-based
HCC1599 = experiment: cells; format: functional, cell-based; conditions: Homo sapiens;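 note: growth inhibition of HCC1599 cells, read out in a cell viability assay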
Description: SANGER: Inhibition of human HCC1599 cell growth in a cell viability assay.

EHEB = experiment: cells; format: functional, cell-based; conditions: Homo sapiens;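 note: growth inhibition of human EHEB cells, read out with a cell viability assay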
Description: SANGER: Inhibition of human EHEB cell growth in a cell viability assay.

NCI-H1522 = experiment: cells; format: functional, cell-based; conditions: Homo sapiens;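 note: growth inhibition of NCI-H1522 cells, read out with a cell viability assay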
Description: SANGER: Inhibition of human NCI-H1522 cell growth in a cell viability assay.

Raji = experiment: cells; format: functional, cell-based; conditions: Homo sapiens;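 note: cell viability assay measuring inhibition of Raji cell growth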
Description: SANGER: Inhibition of human Raji cell growth in a cell viability assay.

HSC-3 = experiment: cells; format: functional, cell-based; conditions: Homo sapiens
Description: SANGER: Inhibition of human HSC-3 cell growth in a cell viability assay.

NCI-H716 = experiment: cells; format: functional, cell-based; conditions: Homo sapiens;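 note: growth inhibition of human NCI-H716 cells, measured by a cell viability assay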
Description: SANGER: Inhibition of human NCI-H716 cell growth in a cell viability assay.

U2OS = experiment: cells; format: functional, cell-based, U-2-OS; conditions: Homo sapiens;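 note: growth inhibition of human U-2-OS cells, determined with a cell viability assay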
Description: SANGER: Inhibition of human U-2-OS cell growth in a cell viability assay.

NCI-H322M = experiment: cells; format: functional, cell-based; conditions: Homo sapiens;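 note: cell viability assay measuring inhibition of growth of human NCI-H322M cells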
Description: SANGER: Inhibition of human NCI-H322M cell growth in a cell viability assay.

TE-441-T = experiment: cells; format: functional, cell-based; conditions: Homo sapiens
Description: SANGER: Inhibition of human TE-441-T cell growth in a cell viability assay.

C32 = experiment: cells; format: functional, cell-based; conditions: Homo sapiens;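 note: cell viability assay, with IC50 reflecting inhibition of C32 cell growth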
Description: SANGER: Inhibition of human C32 cell growth in a cell viability assay.

SW1990 = experiment: cells; format: functional, cell-based; conditions: Homo sapiens
Description: SANGER: Inhibition of human SW1990 cell growth in a cell viability assay.

UMUC3 = experiment: cells; format: functional, cell-based; conditions: Homo sapiens;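 note: growth inhibition of human UM-UC-3 cells, read out with a cell viability assay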
Description: SANGER: Inhibition of human UM-UC-3 cell growth in a cell viability assay.

CHP-212 = experiment: cells; format: functional, cell-based; conditions: Homo sapiens
Description: SANGER: Inhibition of human CHP-212 cell growth in a cell viability assay.

SCC-25 = experiment: cells; format: functional, cell-based; conditions: Homo sapiens;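 note: growth inhibition of SCC-25 cells, measured with a cell viability assay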
Description: SANGER: Inhibition of human SCC-25 cell growth in a cell viability assay.

CP50-MEL-B = experiment: cells; format: functional, cell-based; conditions: Homo sapiens;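 note: growth inhibition of the human cell line, measured with a cell viability read-out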
Description: SANGER: Inhibition of human CP50-MEL-B cell growth in a cell viability assay.

HCT-15 = experiment: cells; format: functional, cell-based; conditions: Homo sapiens;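 note: cell viability readout, IC50 reflecting suppression of HCT-15 cell growth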
Description: SANGER: Inhibition of human HCT-15 cell growth in a cell viability assay.

PF-382 = experiment: cells; format: functional, cell-based; conditions: Homo sapiens
Description: SANGER: Inhibition of human PF-382 cell growth in a cell viability assay.

ST486 = experiment: SANGER: Inhibition of human ST486 cell growth in a cell viability assay.; format: functional, cell-based
SW1710 = experiment: cells; format: functional, cell-based; conditions: Homo sapiens;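 note: growth inhibition of SW1710 cells, determined with a cell viability assay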
Description: SANGER: Inhibition of human SW1710 cell growth in a cell viability assay.

HCC1569 = experiment: cells; format: functional, cell-based; conditions: Homo sapiens;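 note: growth inhibition of human HCC1569 cells, read out with a cell viability assay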
Description: SANGER: Inhibition of human HCC1569 cell growth in a cell viability assay.

SW1088 = experiment: cells; format: functional, cell-based; conditions: Homo sapiens;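 note: growth inhibition of human SW1088 cells, read out by a cell viability assay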
Description: SANGER: Inhibition of human SW1088 cell growth in a cell viability assay.

A2058 = experiment: cells; format: functional, cell-based; conditions: Homo sapiens;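 note: reduction of A2058 cell growth, read out with a viability assay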
Description: SANGER: Inhibition of human A2058 cell growth in a cell viability assay.

L-540 = experiment: cells; format: functional, cell-based; conditions: Homo sapiens;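 note: growth inhibition of the human L-540 cell line, read out with a viability assay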
Description: SANGER: Inhibition of human L-540 cell growth in a cell viability assay.

KYSE-270 = experiment: cells; format: functional, cell-based; conditions: Homo sapiens;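 note: cell growth inhibition measured with a viability assay in the human KYSE-270 line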
Description: SANGER: Inhibition of human KYSE-270 cell growth in a cell viability assay.

8305C = experiment: cells; format: functional, cell-based; conditions: Homo sapiens
Description: SANGER: Inhibition of human 8305C cell growth in a cell viability assay.

NB12 = experiment: cells; format: functional, cell-based; conditions: Homo sapiens;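 note: growth inhibition of human NB12 cells, read out by a cell viability assay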
Description: SANGER: Inhibition of human NB12 cell growth in a cell viability assay.

COR-L23 = experiment: cells; format: functional, cell-based; conditions: Homo sapiens;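 note: cell viability assay measuring how strongly compounds suppress growth of COR-L23 cells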
Description: SANGER: Inhibition of human COR-L23 cell growth in a cell viability assay.

UMC-11 = experiment: cells; format: functional, cell-based; conditions: Homo sapiens;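 note: growth inhibition of UMC-11 cells, read out with a cell viability assay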
Description: SANGER: Inhibition of human UMC-11 cell growth in a cell viability assay.

S-117 = experiment: cells; format: functional, cell-based; conditions: Homo sapiens
Description: SANGER: Inhibition of human S-117 cell growth in a cell viability assay.

EB-3 = experiment: cells; format: functional, cell-based; conditions: Homo sapiens;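 note: human EB-3 cells, growth inhibition read out via a cell viability assay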
Description: SANGER: Inhibition of human EB-3 cell growth in a cell viability assay.

NCI-H1573 = experiment: cells; format: functional, cell-based; conditions: Homo sapiens;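 note: growth inhibition of NCI-H1573 cells, read out with a cell viability assay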
Description: SANGER: Inhibition of human NCI-H1573 cell growth in a cell viability assay.

G-401 = experiment: cells; format: functional, cell-based; conditions: Homo sapiens
Description: SANGER: Inhibition of human G-401 cell growth in a cell viability assay.

LC4-1 = experiment: cells; format: functional, cell-based; conditions: Homo sapiens;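 note: growth inhibition of LC4-1 cells, read out with a cell viability assay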
Description: SANGER: Inhibition of human LC4-1 cell growth in a cell viability assay.

SK-HEP1 = experiment: cells; format: functional, cell-based, SK-HEP-1; conditions: Homo sapiens;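 note: cell viability readout used to quantify reduction in proliferation of human SK-HEP-1 cells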
Description: SANGER: Inhibition of human SK-HEP-1 cell growth in a cell viability assay.

CAL-148 = experiment: cells; format: functional, cell-based; conditions: Homo sapiens
Description: SANGER: Inhibition of human CAL-148 cell growth in a cell viability assay.

HCC1806 = experiment: cells; format: functional, cell-based; conditions: Homo sapiens;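 note: growth inhibition of the cancer cell line, determined with a cell viability assay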
Description: SANGER: Inhibition of human HCC1806 cell growth in a cell viability assay.

A253 cell line = experiment: cells; format: functional, cell-based; conditions: Homo sapiens;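 note: growth inhibition of A253 cells, read out with a cell viability assay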
Description: SANGER: Inhibition of human A253 cell growth in a cell viability assay.

DMS-273 = experiment: cells; format: functional, cell-based; conditions: Homo sapiens
Description: SANGER: Inhibition of human DMS-273 cell growth in a cell viability assay.

YT = experiment: cells; format: functional, cell-based; conditions: Homo sapiens
Description: SANGER: Inhibition of human YT cell growth in a cell viability assay.

CESS = experiment: SANGER: Inhibition of human CESS cell growth in a cell viability assay.; format: functional, cell-based
647-V = experiment: cells; format: functional, cell-based; conditions: Homo sapiens;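 note: growth inhibition of 647-V cells, read out with a cell viability assay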
Description: SANGER: Inhibition of human 647-V cell growth in a cell viability assay.

HSC-4 = experiment: cells; format: functional, cell-based; conditions: Homo sapiens;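 note: growth inhibition of human HSC-4 cells, read out with a cell viability assay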
Description: SANGER: Inhibition of human HSC-4 cell growth in a cell viability assay.

OPM-2 = experiment: cells; format: functional, cell-based; conditions: Homo sapiens;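 note: growth of OPM-2 cells measured with a viability assay, IC50 for suppression of proliferation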
Description: SANGER: Inhibition of human OPM-2 cell growth in a cell viability assay.

NCI-H2030 = experiment: cells; format: functional, cell-based; conditions: Homo sapiens;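 note: growth inhibition of human NCI-H2030 cells, read out by a cell viability assay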
Description: SANGER: Inhibition of human NCI-H2030 cell growth in a cell viability assay.

NCI-H520 = experiment: cells; format: functional, cell-based; conditions: Homo sapiens;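 note: growth inhibition of NCI-H520 cells, measured by a cell viability assay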
Description: SANGER: Inhibition of human NCI-H520 cell growth in a cell viability assay.

YAPC = experiment: cells; format: functional, cell-based; conditions: Homo sapiens;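 note: growth inhibition of YAPC cells, measured with a cell viability assay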
Description: SANGER: Inhibition of human YAPC cell growth in a cell viability assay.

ChaGo-K-1 = experiment: cells; format: functional, cell-based; conditions: Homo sapiens;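 note: growth inhibition of ChaGo-K-1 cells, read out with a cell viability assay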
Description: SANGER: Inhibition of human ChaGo-K-1 cell growth in a cell viability assay.

NCI-H1623 = experiment: cells; format: functional, cell-based; conditions: Homo sapiens;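 note: cell viability assay used as the read-out for growth inhibition of NCI-H1623 cells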
Description: SANGER: Inhibition of human NCI-H1623 cell growth in a cell viability assay.

KYSE-520 cell line = experiment: cells; format: functional, cell-based; conditions: Homo sapiens;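 note: growth inhibition of human KYSE-520 cells, read out with a viability assay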
Description: SANGER: Inhibition of human KYSE-520 cell growth in a cell viability assay.

SBC-5 = experiment: cells; format: functional, cell-based; conditions: Homo sapiens;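 note: cell viability assay read-out, IC50 is the concentration that inhibits growth of the cells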
Description: SANGER: Inhibition of human SBC-5 cell growth in a cell viability assay.

PFSK-1 = experiment: cells; format: functional, cell-based; conditions: Homo sapiens;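 note: cell viability assay measuring how strongly compounds suppress growth of human PFSK-1 cells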
Description: SANGER: Inhibition of human PFSK-1 cell growth in a cell viability assay.

HEC-1 = experiment: cells; format: functional, cell-based; conditions: Homo sapiens;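 note: growth inhibition of the cell line, read out with a cell viability assay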
Description: SANGER: Inhibition of human HEC-1 cell growth in a cell viability assay.

MKN-7 = experiment: cells; format: functional, cell-based; conditions: Homo sapiens;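 note: growth inhibition of MKN-7 cells, read out with a cell viability assay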
Description: SANGER: Inhibition of human MKN7 cell growth in a cell viability assay.

RERF-LC-MS = experiment: cells; format: functional, cell-based; conditions: Homo sapiens;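 note: growth inhibition of human RERF-LC-MS cells, read out by a cell viability assay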
Description: SANGER: Inhibition of human RERF-LC-MS cell growth in a cell viability assay.

NCI-H650 = experiment: cells; format: functional, cell-based; conditions: Homo sapiens;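 note: growth inhibition of NCI-H650 cells, read out by a viability assay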
Description: SANGER: Inhibition of human NCI-H650 cell growth in a cell viability assay.

CC(O)(CS(=O)(=O)c1ccc(F)cc1)C(=O)Nc1ccc(C#N)c(C(F)(F)F)c1 (stereo not given) [BICALUTAMIDE]
IC50 (NCI-H524): > 1020 nM | IC50 (NCI-H1417): > 1020 nM | IC50 (H4): > 1020 nM | IC50 (MDA-MB-175-VII): > 1020 nM | IC50 (MDA-MB-453): > 1020 nM | IC50 (BHT-101): > 1020 nM | IC50 (SCC-3): > 1020 nM | IC50 (SK-MEL3): > 1020 nM | IC50 (OAW-42): > 1020 nM | IC50 (BL-70): > 1020 nM | IC50 (HCC1599): > 1020 nM | IC50 (EHEB): > 1020 nM | IC50 (NCI-H1522): > 1020 nM | IC50 (Raji): > 1020 nM | IC50 (HSC-3): > 1020 nM | IC50 (NCI-H716): > 1020 nM | IC50 (U2OS): > 1020 nM | IC50 (NCI-H322M): > 1020 nM | IC50 (TE-441-T): > 1020 nM | IC50 (C32): > 1020 nM | IC50 (SW1990): > 1020 nM | IC50 (UMUC3): > 1020 nM | IC50 (CHP-212): > 1020 nM | IC50 (SCC-25): > 1020 nM | IC50 (CP50-MEL-B): > 1020 nM | IC50 (HCT-15): > 1020 nM | IC50 (PF-382): > 1020 nM | IC50 (ST486): > 1020 nM | IC50 (SW1710): > 1020 nM | IC50 (HCC1569): > 1020 nM | IC50 (SW1088): > 1020 nM | IC50 (A2058): > 1020 nM | IC50 (L-540): > 1020 nM | IC50 (KYSE-270): > 1020 nM | IC50 (8305C): > 1020 nM | IC50 (NB12): > 1020 nM | IC50 (COR-L23): > 1020 nM | IC50 (UMC-11): > 1020 nM | IC50 (S-117): > 1020 nM | IC50 (EB-3): > 1020 nM | IC50 (NCI-H1573): > 1020 nM | IC50 (G-401): > 1020 nM | IC50 (LC4-1): > 1020 nM | IC50 (SK-HEP1): > 1020 nM | IC50 (CAL-148): > 1020 nM | IC50 (HCC1806): > 1020 nM | IC50 (A253 cell line): > 1020 nM | IC50 (DMS-273): > 1020 nM | IC50 (YT): > 1020 nM | IC50 (CESS): > 1020 nM | IC50 (647-V): > 1020 nM | IC50 (HSC-4): > 1020 nM | IC50 (OPM-2): > 1020 nM | IC50 (NCI-H2030): > 1020 nM | IC50 (NCI-H520): > 1020 nM | IC50 (YAPC): > 1020 nM | IC50 (ChaGo-K-1): > 1020 nM | IC50 (NCI-H1623): > 1020 nM | IC50 (KYSE-520 cell line): > 1020 nM | IC50 (SBC-5): > 1020 nM | IC50 (PFSK-1): > 1020 nM | IC50 (HEC-1): > 1020 nM | IC50 (MKN-7): > 1020 nM | IC50 (RERF-LC-MS): > 1020 nM | IC50 (NCI-H650): > 1020 nM

CCNC(=O)c1noc(-c2cc(C(C)C)c(O)cc2O)c1-c1ccc(CN2CCOCC2)cc1 [LUMINESPIB]
IC50 (NCI-H524): > 256 nM | IC50 (NCI-H1417): 48.9 nM | IC50 (H4): 13.7 nM | IC50 (MDA-MB-175-VII): > 256 nM | IC50 (MDA-MB-453): > 256 nM | IC50 (BHT-101): 58.8 nM | IC50 (SCC-3): > 256 nM | IC50 (SK-MEL3): 48 nM | IC50 (OAW-42): 37.5 nM | IC50 (BL-70): 33.9 nM | IC50 (HCC1599): 96 nM | IC50 (EHEB): 25.6 nM | IC50 (NCI-H1522): 148 nM | IC50 (Raji): > 256 nM | IC50 (HSC-3): 6.41 nM | IC50 (NCI-H716): > 256 nM | IC50 (U2OS): 39.4 nM | IC50 (NCI-H322M): > 256 nM | IC50 (TE-441-T): 49.3 nM | IC50 (C32): > 256 nM | IC50 (SW1990): 27.2 nM | IC50 (UMUC3): 49.5 nM | IC50 (CHP-212): 22.1 nM | IC50 (SCC-25): 136 nM | IC50 (CP50-MEL-B): 83.7 nM | IC50 (HCT-15): 66 nM | IC50 (PF-382): 48.3 nM | IC50 (ST486): 55.3 nM | IC50 (SW1710): 1.86 nM | IC50 (HCC1569): 36.1 nM | IC50 (SW1088): > 256 nM | IC50 (A2058): 29.3 nM | IC50 (L-540): > 256 nM | IC50 (KYSE-270): 10.6 nM | IC50 (8305C): 30.7 nM | IC50 (NB12): 95.2 nM | IC50 (COR-L23): 27.1 nM | IC50 (UMC-11): > 256 nM | IC50 (S-117): 127 nM | IC50 (EB-3): 224 nM | IC50 (NCI-H1573): 177 nM | IC50 (G-401): 10.3 nM | IC50 (LC4-1): 115 nM | IC50 (SK-HEP1): 3.36 nM | IC50 (CAL-148): 243 nM | IC50 (HCC1806): 111 nM | IC50 (A253 cell line): 50.5 nM | IC50 (DMS-273): 34.8 nM | IC50 (YT): 11.8 nM | IC50 (CESS): 31.2 nM | IC50 (647-V): 149 nM | IC50 (HSC-4): 172 nM | IC50 (OPM-2): > 256 nM | IC50 (NCI-H2030): 17 nM | IC50 (NCI-H520): 26.6 nM | IC50 (YAPC): > 256 nM | IC50 (ChaGo-K-1): 127 nM | IC50 (NCI-H1623): > 256 nM | IC50 (KYSE-520 cell line): 26.1 nM | IC50 (SBC-5): 91.9 nM | IC50 (PFSK-1): 103 nM | IC50 (HEC-1): 71.6 nM | IC50 (MKN-7): > 256 nM | IC50 (RERF-LC-MS): 134 nM | IC50 (NCI-H650): 21.2 nM

From ChEMBL document CHEMBL1201861, “Genomics of Drug Sensitity in Cancer screening data, Wellcome Trust Sanger Institute”
